Source: PMC12043106, “Insight into antistaphylococcal effect of chlorinated 1-hydroxynaphthalene-2-carboxanilides” (ADMET & DMPK, 2025)
≈ marks a conversion by molar mass, not a printed value. Where “and” joins values, the source holds several entries; their conditions need not be identical. Equal entries are not always repeated.

Key:
MRSA SA 630 = assay: Antistaphylococcal screening, microtitration broth MIC; type: cell-based, methicillin-resistant S. aureus; conditions: Staphylococcus aureus; MRSA SA 630, 24 h, 37 °C
Experimental: (§1) In vitro antistaphylococcal activity of the synthesized compounds was evaluated against three clinical isolates of methicillin-resistant S. aureus: clinical isolate of animal origin, MRSA 63718 (Department of Infectious Diseases and Microbiology, Faculty of Veterinary Medicine, University of Veterinary Sciences Brno, Czech Republic), carrying the mecA gene; and MRSA SA 630 and MRSA SA 3202 [54] (National Institute of Public Health, Prague, Czech Republic), both of human origin. […] All isolates were tested for the presence of the mecA gene encoding methicillin resistance. […] Vancomycin-susceptible methicillin-susceptible S. aureus (VS-MSSA) ATCC 29213, obtained from the American Type Culture Collection, was used as the reference and quality control strain. The minimum inhibitory concentrations (MICs) were evaluated by the microtitration broth method according to the CLSI [58, 59] with some modifications. The compounds were dissolved in DMSO (Sigma, St. Louis, MO, USA) to get a concentration […] and diluted in a microtitration plate in a medium Cation Adjusted Mueller-Hinton (CaMH, Oxoid, Basingstoke, UK) to reach the final concentration of 256-0.0625 μg/mL. The plate was inoculated by the tested microorganisms. The final concentration of bacterial cells was 10^5 for bacteria. […] A drug-free control and a sterility control were included. The plates were incubated for 24 h at 37 °C. […] The experiments were repeated three times.

MRSA SA 3202 = assay: as above; type: cell-based, methicillin-resistant S. aureus; conditions: Staphylococcus aureus; MRSA SA 3202, 24 h, 37 °C
Experimental: as §1

MRSA 63718 = assay: as above; type: cell-based, methicillin-resistant S. aureus; conditions: Staphylococcus aureus; MRSA 63718, 24 h, 37 °C
Experimental: as §1

[1] = Lipophilicity determination by HPLC (capacity factor k, distribution coefficients DpH); type: physicochemical; conditions: for log k: MeOH 72 % / H2O 28 %, C18; for log D6.5: MeOH 72 % / acetate-buffered saline pH 6.5 28 %; for log D7.4: MeOH 72 % / acetate-buffered saline pH 7.4 28 %
Description: An HPLC system Agilent 1200 equipped with a DAD detector (Agilent, Santa Clara, CA, USA) was used. A chromatographic column Symmetry® C18 5 μm, 4.6×250 mm, part No. WAT054275 (Waters Corp., Milford, MA, USA) was used. The HPLC separation process was monitored and evaluated with EZChrom Elite software ver. 3.3.2 [53] (Agilent). Isocratic elution by a mixture of MeOH p.a. (72 %) and H2O-HPLC Mili-Q grade (28 %) as a mobile phase was used for the determination of capacity factor k. Isocratic elution by a mixture of MeOH p.a. (72 %) and acetate-buffered saline (pH 7.4 and pH 6.5) (28 %) as a mobile phase was used for the determination of distribution coefficients expressed as D7.4 and D6.5. The total flow of the column was 1.0 mL/min, the injection volume was 20 μL, the column temperature was 40 °C, and the sample temperature was 10 °C. The detection wavelength of 210 nm was chosen. A KI methanolic solution was used for the determination of the dead times (tD). Retention times (tR) were measured in minutes. The capacity factors k were calculated according to the formula k = (tR−tD)/tD, where tR is the retention time of the solute, and tD is the dead time obtained using an unretained analyte. The distribution coefficients DpH were calculated according to the formula DpH = (tR−tD)/tD. Each experiment was repeated three times.

S. aureus ATCC 29213 [2] = assay: Antistaphylococcal screening, microtitration broth MIC; type: cell-based, Staphylococcus aureus; conditions: for MIC: Staphylococcus aureus, ATCC29213, S. aureus ATCC 29213, 24 h, 37 °C; for Antistaphylococcal activity in words: susceptible strain and resistant isolates
Experimental: as §1

in vitro = assay: in vitro
Experimental: Cytotoxicity of the compounds was determined using an LDH assay kit (Roche, Mannheim, Germany) as described previously. Human monocytic leukemia THP-1 cells (European Collection of Cell Cultures, Salisbury, UK) were exposed for 24 h at 37 °C to various compound concentrations ranging from 0.37 to 30 μM in RPMI 1640 medium. For LDH assays, cells were seeded into 96-well plates (5×10^4 cells/well in 100 μL of culture medium) in triplicate in serum-free RPMI 1640 medium and measurements were taken 24 h after the treatment with the compounds. The maximum concentration of DMSO (Sigma) in the assays never exceeded 0.1 %. […] The median lethal dose values, LC50, were deduced through the production of a dose-response curve. All data from three independent experiments were evaluated using GraphPad Prism 5.00 software.

[3] = system: Human monocytic leukemia THP-1 cells; design: method as in PMID 24075143; conditions: tested up to 20 μM, ref [29], read-out: LC50 THP-1; cited from earlier work
S. aureus ATCC 29213 [4] = assay: MTT assay (bacterial viability / respiratory activity); type: cell-based, Staphylococcus aureus; conditions: S. aureus ATCC 29213, MTT; for S. aureus viability inhibition: at the lowest multiple of MIC with at least 70 % inhibition
Experimental: Compounds were prepared as previously stated and diluted in CaMH broth for S. aureus to achieve the desired final concentrations. S. aureus bacterial suspension in sterile distilled water at 0.5 McFarland was diluted 1:3. Inocula were added to each well by multi-inoculator. Diluted […] in broth free from inhibiting compounds were used as the growth control. All compounds were prepared in duplicate. Plates were incubated at 37 °C for 24 h for S. aureus. After the incubation period, 10 % well volume of MTT (3-(4,5-dimethylthiazol-2-yl)-2,5-diphenyltetrazolium bromide) reagent (Sigma) was mixed into each well and incubated at 37 °C for 1 h for S. aureus. Then 100 μL of 17 % sodium dodecyl sulphate in 40 % dimethylformamide was added to each well. The plates were read at 570 nm. The absorbance readings from the cells grown in the presence of the tested compounds were compared with uninhibited cell growth to determine the relative percent inhibition. The percent inhibition was determined through the MTT assay. The percent viability is calculated through the comparison of a measured value and that of the uninhibited control: Viability = (OD570E/OD570P)×100, where OD570E is the reading from the compound-exposed cells, while OD570P is the reading from the uninhibited cells (positive control). Cytotoxic potential is determined by a percent viability of <70 % [60, 61].
The MTT assay can be used to assess cell growth by measuring respiration.

Row | Compound | MIC (MRSA SA 630) [µM] | MIC (MRSA SA 3202) [µM] | MIC (MRSA 63718) [µM] | log k [1] | log D6.5 [1] | log D7.4 [1] | MIC (S. aureus ATCC 29213 [2]) [µM] | CC50 at 24 h (in vitro) [µM] | CC50 [3] [µM] | Antistaphylococcal activity in words (S. aureus ATCC 29213 [2]) | Concentration: lowest multiple of MIC with at least 70 % inhibition of viability (S. aureus ATCC 29213 [4]) [× MIC] | S. aureus viability inhibition (S. aureus ATCC 29213 [4])
1 | O=C(Nc1cc(Cl)c(Cl)c(Cl)c1)c1ccc2ccccc2c1O [Compound 13, N-(3,4,5-trichlorophenyl)-1-hydroxynaphthalene-2--carboxamide] | 698 (≈ 256 µg/mL) | 698 (≈ 256 µg/mL) | 698 (≈ 256 µg/mL) | 1.2387 | 1.0960 | 1.0561 | 698 (≈ 256 µg/mL) | – | – | – | – | –
2 | O=C(Nc1cc(Cl)c(Cl)cc1Cl)c1ccc2ccccc2c1O [Compound 11] | 698 (≈ 256 µg/mL) | 698 (≈ 256 µg/mL) | 698 (≈ 256 µg/mL) | 0.6894 | 0.5314 | 0.4864 | 698 (≈ 256 µg/mL) | – | – | – | – | –
3 | O=C(Nc1ccc(Cl)c(Cl)c1)c1ccc2ccccc2c1O [Compound 9] | 96.3 (≈ 32 µg/mL) | 385 (≈ 128 µg/mL) | 770 (≈ 256 µg/mL) | 0.9304 | 0.9048 | 0.8909 | 770 (≈ 256 µg/mL) | – | – | – | – | –
4 | O=C(Nc1cc(Cl)ccc1Cl)c1ccc2ccccc2c1O [Compound 7] | 770 (≈ 256 µg/mL) | 770 (≈ 256 µg/mL) | 770 (≈ 256 µg/mL) | 0.6717 | 0.3949 | 0.3938 | 770 (≈ 256 µg/mL) | – | – | – | – | –
5 | CC[C@@]1(O)C(=O)OCc2c1cc1n(c2=O)Cc2cc3ccccc3nc2-1 [CMP, camptothecin, reference compound] | – | – | – | – | – | – | – | 0.16 ± 0.07 | – | – | – | –
6 | O=C(Nc1c(Cl)cc(Cl)cc1Cl)c1ccc2ccccc2c1O [Compound 12] | 698 (≈ 256 µg/mL) | 698 (≈ 256 µg/mL) | 698 (≈ 256 µg/mL) | 0.8398 | 0.7254 | 0.6825 | 698 (≈ 256 µg/mL) | – | – | – | – | –
7 | O=C(Nc1ccc(Cl)cc1)c1ccc2ccccc2c1O [Compound 4] | 429 (≈ 128 µg/mL) | 107 (≈ 31.9 µg/mL) | > 859 | 0.8880 | 0.7640 | 0.7501 | > 859 | – | > 20 | – | – | –
8 | O=C(Nc1ccccc1Cl)c1ccc2ccccc2c1O [Compound 2] | > 859 | > 859 | > 859 | 0.6900 | 0.5828 | 0.5836 | > 859 | – | – | – | – | –
9 | O=C(Nc1c(Cl)cccc1Cl)c1ccc2ccccc2c1O [Compound 8, N-(2,6-dichlorophenyl)-1-hydroxynaphthalene-2-carboxamide] | 48.2 (≈ 16 µg/mL) | 48.2 (≈ 16 µg/mL) | 48.2 (≈ 16 µg/mL) | 0.5729 | 0.4516 | 0.4594 | 48.2 (≈ 16 µg/mL) | > 30 | – | Partial activity | – | –
10 | CC1(C)S[C@@H]2[C@H](NC(=O)[C@H](N)c3ccccc3)C(=O)N2[C@H]1C(=O)O [APC, ampicillin, reference compound] | 45.8 (≈ 16 µg/mL) | 45.8 (≈ 16 µg/mL) | 45.8 (≈ 16 µg/mL) | – | – | – | 5.72 (≈ 2 µg/mL) | 0.8 ± 0.1 | – | – | 8 | 90.0%
11 | O=C(Nc1cccc(Cl)c1)c1ccc2ccccc2c1O [Compound 3] | 429 (≈ 128 µg/mL) | 107 (≈ 31.9 µg/mL) | > 859 | 0.8556 | 0.7362 | 0.7227 | > 859 | – | > 20 | – | – | –
12 | O=C(Nc1cc(Cl)cc(Cl)c1)c1ccc2ccccc2c1O [Compound 10, N-(3,5-dichlorophenyl)-1-hydroxynaphthalene-2-carboxamide] | 0.37 (≈ 0.123 µg/mL) | 0.37 (≈ 0.123 µg/mL) | 0.37 (≈ 0.123 µg/mL) | 0.9704 | 0.9531 | 0.9306 | 0.37 (≈ 0.123 µg/mL) | > 30 | – | significant antistaphylococcal activity | 16 | 96% and 96.5%
13 | O=C(Nc1cccc(Cl)c1Cl)c1ccc2ccccc2c1O [Compound 5] | 770 (≈ 256 µg/mL) | 770 (≈ 256 µg/mL) | 770 (≈ 256 µg/mL) | 0.6838 | 0.4371 | 0.3870 | 770 (≈ 256 µg/mL) | – | – | – | – | –
14 | O=C(Nc1ccc(Cl)cc1Cl)c1ccc2ccccc2c1O [Compound 6] | 770 (≈ 256 µg/mL) | 770 (≈ 256 µg/mL) | 770 (≈ 256 µg/mL) | 0.7387 | 0.5168 | 0.4680 | 770 (≈ 256 µg/mL) | – | – | – | – | –
